Like-named read-outs stand apart in the source and are kept apart here.
Experiments:
[1] = molecular target: T1, fused protein of DNA-binding domain of yeast transcription factor with ligand-binding domain of human type PPAR α (Homo sapiens, UniProt Q07869); assay: Test of transactivation on peroxisome proliferator-activated receptor α (CHO cells, reporter assay)
T1 sequence (Q07869 239-466 limits assumed): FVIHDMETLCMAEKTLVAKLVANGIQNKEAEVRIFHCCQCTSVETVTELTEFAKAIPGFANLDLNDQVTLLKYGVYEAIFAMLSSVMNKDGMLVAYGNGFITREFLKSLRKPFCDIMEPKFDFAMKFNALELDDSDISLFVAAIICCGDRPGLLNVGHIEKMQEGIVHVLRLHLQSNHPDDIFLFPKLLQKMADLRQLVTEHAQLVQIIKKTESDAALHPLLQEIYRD
Experimental: (§1) Test of transactivation on peroxisome proliferator-activated receptors α and γ
(§2) After 24 hours, CAT activity and γ-galactosidase activity were measured.

[2] = molecular target: T2, fused protein of DNA-binding domain of yeast transcription factor with ligand-binding domain of human type PPAR γ (Homo sapiens, UniProt P37231); assay: Test of transactivation on peroxisome proliferator-activated receptor γ (CHO cells, reporter assay)
T2 sequence (P37231 238-503 limits assumed): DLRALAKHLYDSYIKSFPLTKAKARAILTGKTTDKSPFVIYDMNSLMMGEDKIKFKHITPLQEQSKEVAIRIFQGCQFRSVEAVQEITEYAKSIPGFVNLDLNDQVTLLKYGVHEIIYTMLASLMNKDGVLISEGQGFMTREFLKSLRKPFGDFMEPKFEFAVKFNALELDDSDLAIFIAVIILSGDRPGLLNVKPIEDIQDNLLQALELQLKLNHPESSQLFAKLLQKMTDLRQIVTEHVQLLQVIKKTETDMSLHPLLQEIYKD
Experimental: as §1, §2

Row | SMILES | EC50 ([1]; read-out: Transactivation PPARα EC50, CHO cells, cotransfected receptor and reporter plasmid, 24 hours, CAT activity) [nM] | EC50 [1] [nM] | EC50 [2] [nM]
1 | CCCCC/C=C\C/C=C\C=C\[C@@H](O)C/C=C\CCCC(=O)O [(8S)-HETE, reference compound] | 1300 |  | 
2 | COc1ccc(CC2SC(=O)NC2=O)cc1C(=O)NCc1ccccn1 (stereo not drawn) [Example 1, N-[(2-Pyridyl)methyl]-5-[(2,4-dioxothiazolidin-5-yl)methyl]-2-methoxybenzamide] |  | 353 | 300
3 | COc1ccc(CC2SC(=O)NC2=O)cc1C(=O)NCc1cccnc1 (stereo not drawn) [Example 2, N-[(3-Pyridyl)methyl]-5-[(2,4-dioxothiazolidin-5-yl)methyl]-2-methoxybenzamide] |  | 420 | 960

The next lines start with the values.

Row | EC50 ([1]; read-out: Transactivation PPARα EC50, CHO cells, cotransfected receptor and reporter plasmid, 24 hours, CAT activity) [nM] | EC50 [1] [nM] | EC50 [2] [nM] | SMILES
4 |  | 235 | 140 | COc1ccc(CC2SC(=O)NC2=O)cc1C(=O)NCc1ccncc1 (stereo not drawn) [Example 3, N-[(4-Pyridyl)methyl]-5-[(2,4-dioxothiazolidin-5-yl)methyl]-2-methoxybenzamide]
5 |  | 300 | 230 | COc1ccc(CC2SC(=O)NC2=O)cc1C(=O)NCC1CCCCC1 (stereo not drawn) [Example 4, N-(Cyclohexylmethyl)-5-[(2,4-dioxothiazolidin-5-yl)methyl]-2-methoxybenzamide]

Source: patent US6545026B1, “Substituted benzylthiazolidine-2,4-dione derivatives” (Kyorin Pharmaceutical Co., Ltd., priority 1999, dated 2003)
